In publication PMC12509316, “Isoform-Selective PAD2/PAD4 Substrates with Unnatural Amino Acids Enable Cellular Peptidylarginine Deiminase Activity Profiling and Reveal Vimentin Citrullination Effects in Macrophages” (Biochemistry, 2025):
Non-standard residues stand in square brackets, D forms with d. *: point of attachment. Phe(3-I) = N[C@@H](Cc1cccc(I)c1)C(=O)O; ACC = NC(=O)Cc1cc(=O)oc2cc(N*)ccc12; hCha = N[C@@H](CCC1CCCCC1)C(=O)O; hPhe = N[C@@H](CCc1ccccc1)C(=O)O; 3Pal = N[C@@H](Cc1cccnc1)C(=O)O; OBn = c1ccc(CO*)cc1

Legend:
THP-1 cells = experiment: Protein analysis of PMA-differentiated THP-1 cells (Western blot); format: cell-based, human; settings: for GSDMD cleavage / caspase-1 processing to p10 fragment / vimentin and GSDMD protein levels: 1 h pretreatment before 40 nM PMA; for GSDMD cleavage / caspase-1 processing to p10 fragment: BAPTA 10 μM, calpeptin 100 μM; for caspase-1 processing to p10 fragment / vimentin and GSDMD protein levels: Cl-amidine 25 μM, Z-DEVD-FMK 10 μM, VX-765 10 μM
Method: Low-passage THP-1 cells were seeded into 12-well plates and treated with increasing concentrations of phorbol 12-myristate 13-acetate (PMA) ranging from 1 nM to 100 nM. The cells were incubated for 24 h to allow adherence and differentiation. Following incubation, the cells were lysed, and the lysates were subjected to SDS-PAGE (200 V, 30 min) and Western blot analysis. The expression and cleavage of vimentin, gasdermin D (GSDMD), NLRP3, and caspase-1 were analyzed using specific primary antibodies (1:500–1:1,000), followed by incubation with an antirabbit secondary antibody conjugated to Alexa Fluor 800 (1:10,000). Fluorescence signals were detected using an Azure Biosystems Sapphire RGB-NIR biomolecular imager. Ponceau S staining was used as a loading control to ensure equal protein loading in each lane. In a subsequent experiment, THP-1 cells were pretreated with specific inhibitors for 1 h prior to PMA-induced differentiation (40 nM PMA). The inhibitors used were: BAPTA (10 μM, calcium chelator), calpeptin (100 μM, calpain inhibitor), 4-bisindolylmaleimide (25 μM, PKC inhibitor), N-α-benzoyl-N5-(2-chloro-1-iminoethyl)-L-Orn amide or Cl-amidine (25 μM, pan PAD inhibitor, PADi), Z-DEVD-FMK (10 μM, caspase-3 inhibitor), and VX-765 (10 μM, caspase-1 inhibitor). After PMA treatment, the cells were lysed, and the lysates were processed for SDS-PAGE (200 V, 30 min) and Western blotting. Protein detection and visualization were performed in the same manner as in the cell-based experiments without inhibitors.

[1] = system: PMA/LPS-treated THP-1 cells; experiment: Western blot of GSDMD and IL-1β processing after DAMP treatment; format: cell-based, human
Method: THP-1 cells were seeded and stimulated with PMA and LPS, as described in “Protein analysis of PMA-differentiated THP-1 cells” section. After stimulation, vimentin, citrullinated vimentin, or their cleavage products-generated by caspase-3 or calpain-1 digestion were added to the cells, which were then incubated for an additional 48 h. Following incubation, lactate dehydrogenase (LDH) activity in the supernatant was measured using the CytoTox 96 Non-Radioactive Cytotoxicity Assay (G1718) as an indicator of membrane disruption, according to the manufacturer’s protocol. Cytotoxicity was calculated as the percentage of LDH released from the treated samples relative to the LDH release induced by the lysis buffer and normalized to the spontaneous release from the control cells. Absorbance was measured at 490 nm using a spectrophotometric microplate reader (Gemini XPS, Molecular Devices). All experiments were independently performed in triplicate. Statistical analyses were performed using GraphPad Prism software (GraphPad Software, Inc., La Jolla, CA, USA). One-way ANOVA followed by Tukey’s multiple comparisons posthoc test was used to determine statistical significance. For Western blot analysis, proteins from the cell lysates were prepared as described in “Protein analysis of PMA-differentiated THP-1 cells”. To isolate proteins from the supernatant, 1 mL of the sample was mixed with 0.5 mL of 30% trichloroacetic acid (TCA) at room temperature and incubated on ice for 30 min. The mixture was centrifuged at 12,000 × g for 20 min at 4 °C. The supernatant was discarded, and the pellet was washed with 100 μL of 10% TCA, followed by centrifugation. The pellet was then washed with 300 μL of acetone, centrifuged again, and allowed to dry completely. The remaining residues were dissolved in SDS-PAGE loading buffer under reducing conditions. Proteins of interest were detected using primary antibodies against GSDMD and interleukin-1β (IL-1β), followed by secondary antirabbit antibodies conjugated with Alexa Fluor 800. Fluorescence signals were visualized using an Azure Biosystems Sapphire RGB-NIR biomolecular imager. Ponceau S staining was used as a loading control to verify equal protein loading in the SDS-PAGE.

PAD2 = experiment: Trypsin-coupled fluorogenic citrullination assay of ACC substrates with recombinant PAD2; format: biochemical, human; settings: for citrullination of substrate by PAD2: substrate 10 μM, PAD2 37.5-300 nM (effective at 150-300 nM), 15 min preincubation, then trypsin 5 nM, ACC fluorescence ex 355/em 460 nm, pH 7.2, 5 mM CaCl2, triplicate; for selectivity for PAD2 over PAD4: comparison of citrullination by PAD2 and PAD4, 37.5-300 nM enzyme
Method: (§1) All kinetic studies were conducted using an fMax fluorescence plate reader (Molecular Devices) operating in the fluorescence kinetic mode with 96- or 384-well plates. The fluorescence of ACC was monitored at excitation and emission wavelengths of 355 and 460 nm, respectively. The assay buffers for PADs and trypsin consisted of 100 mM TRIS-HCl, 10 mM NaCl, 5 mM CaCl2, and 5 mM DTT (pH 7.2). All experiments, including library screening and substrate kinetics, were repeated at least three times and the average values were reported. Kinetic data were analyzed using GraphPad Prism software (version 10.2.0).
(§2) Substrate screening for PAD2 and PAD4 was performed at a final substrate concentration of 10 μM, as described in “PAD substrate specificity profiling section”. PAD2 and PAD4 were tested across a concentration range of 37.5 nM to 300 nM, whereas the trypsin concentration was 5 nM. Briefly, each substrate was preincubated with the specified concentration of PAD in a 50 μL reaction volume (or in 50 μL of buffer for PAD-untreated control) for 15 min, after which 50 μL of trypsin was added to the reaction wells. The hydrolysis of Arg-containing substrates by trypsin was monitored over time. The percentage of substrate citrullination was calculated by comparing the extent of trypsin-mediated cleavage of untreated substrates with that of substrates preincubated with PAD. Each assay was performed in triplicate, and the resulting citrullination percentages are presented graphically. The standard deviation of each data point was less than 15%.

PAD4 [2] = experiment: Trypsin-coupled fluorogenic citrullination assay of ACC substrates with recombinant PAD4; format: biochemical, human; settings: for selectivity for PAD4 over PAD2: comparison of citrullination by PAD4 and PAD2, 37.5-300 nM enzyme; for citrullination of substrate by PAD4: substrate 10 μM, PAD4 37.5-300 nM, 15 min preincubation, then trypsin 5 nM, ACC fluorescence ex 355/em 460 nm, pH 7.2, 5 mM CaCl2, triplicate
Method: as §1, §2

PAD4 [3] = experiment: Vimentin citrullination assay (Western blot); format: biochemical, human; settings: recombinant vimentin 80 μg, 100 nM PAD4, 5-60 min
Method: Recombinant vimentin (80 μg) was incubated with 100 nM PAD4 for varying durations (5–60 min). Following incubation, the samples were subjected to SDS-PAGE, and the proteins were subsequently transferred onto a nitrocellulose membrane. Western blot analysis was performed using antivimentin and anticitrullinated vimentin antibodies, followed by a secondary antibody conjugated to Alexa Fluor 800 to assess the time-dependent decrease in native vimentin levels and the corresponding increase in citrullinated vimentin levels. Subsequently, both native and citrullinated vimentin were incubated with either human recombinant caspase-3 (20 nM) or calpain-1 (10 nM) for 30 min. After incubation, the samples were analyzed by SDS-PAGE followed by colloidal Coomassie dye G-250 (Thermo, 24590) staining.

Question: Which GSDMD cleavage (THP-1 cells) does the source give for `O=C(O)CN(CC(=O)O)c1ccccc1OCCOc1ccccc1N(CC(=O)O)CC(=O)O` [BAPTA] here?
Answer: cleavage of GSDMD

Question: And the “caspase-1 processing to p10 fragment” value (THP-1 cells)?
Answer: processed into its active 10 kDa fragment

Question: What does the source list for `N=C(CCl)NCCC[C@H](NC(=O)c1ccccc1)C(N)=O` [Cl-amidine, N-α-benzoyl-N5-(2-chloro-1-iminoethyl)-L-Orn amide]?
Answer: caspase-1 processing to p10 fragment (THP-1 cells): prevented; vimentin and GSDMD protein levels (THP-1 cells): marked downregulation

Question: What does the source list for `CCCCCCCCCCCCCC(=O)O[C@@H]1[C@@H](C)[C@@]2(O)[C@@H](C=C(CO)C[C@]3(O)C(=O)C(C)=C[C@@H]23)[C@@H]2C(C)(C)[C@]12OC(C)=O` [PMA, phorbol 12-myristate 13-acetate]?
Answer: GSDMD and NLRP3 protein levels (THP-1 cells; PMA 1-100 nM, 24 h): downregulating; vimentin protein level (THP-1 cells; PMA 1-100 nM, 24 h): dose-dependent upregulation

Question: For `CCO[C@@H]1OC(=O)C[C@@H]1NC(=O)[C@@H]1CCCN1C(=O)[C@@H](NC(=O)c1ccc(N)c(Cl)c1)C(C)(C)C` [VX-765], which “caspase-1 processing to p10 fragment” value (THP-1 cells) is on record?
Answer: prevented

Question: What about the “vimentin and GSDMD protein levels” value (THP-1 cells) of the same compound?
Answer: marked downregulation

Question: How did the “caspase-1 processing to p10 fragment” value (THP-1 cells) turn out when `COC(=O)CC[C@H](NC(=O)[C@H](CC(=O)OC)NC(=O)OCc1ccccc1)C(=O)N[C@H](C(=O)N[C@@H](CC(=O)OC)C(=O)CF)C(C)C` [Z-DEVD-fmk, Z-DEVD-FMK] was run?
Answer: prevented

Question: What about the “vimentin and GSDMD protein levels” value (THP-1 cells) of the same compound?
Answer: marked downregulation

Question: With `CCCC[C@@H](C=O)NC(=O)[C@H](CC(C)C)NC(=O)OCc1ccccc1` [calpeptin] as the compound, how does the GSDMD cleavage (THP-1 cells) read?
Answer: cleavage of GSDMD

Question: What about the “caspase-1 processing to p10 fragment” value (THP-1 cells) of the same compound?
Answer: processed into its active 10 kDa fragment

Question: Which GSDMD processing fragment [1] does the source give for `CO[C@@H]1C[C@@H](C[C@H]2CC[C@H](C)[C@H]([C@@H](C)C(=O)O)O2)O[C@]2(O[C@](C)([C@H]3CC[C@@](C)([C@@H]4O[C@@H]([C@H]5O[C@@](O)(CO)[C@H](C)C[C@@H]5C)C[C@@H]4C)O3)C[C@H]2C)[C@@H]1C` [nigericin, reference compound] here?
Answer: p31 fragment

Question: And the pro-IL-1β processing [1]?
Answer: activation of pro-interleukin-1β

Question: Which results are given for “Ac-D(OBn)[dY]DR-{ACC} (SMILES CC(=O)N[C@@H](CC(=O)OCc1ccccc1)C(=O)N[C@H](Cc1ccc(O)cc1)C(=O)N[C@@H](CC(=O)O)C(=O)N[C@@H](CCCNC(=N)N)C(=O)Nc1ccc2c(CC(N)=O)cc(=O)oc2c1) [(4)-NH-2]”?
Answer: citrullination of substrate by PAD2 (PAD2): poorly recognized; selectivity for PAD4 over PAD2 (PAD4 [2]): most selective; citrullination of substrate by PAD4 (PAD4 [2]): efficiently processed

Question: How did the “citrullination of substrate by PAD2” value (PAD2) turn out when “Ac-D(OBn)[hCha]DR-{ACC} (SMILES CC(=O)N[C@@H](CC(=O)OCc1ccccc1)C(=O)N[C@@H](CCC1CCCCC1)C(=O)N[C@@H](CC(=O)O)C(=O)N[C@@H](CCCNC(=N)N)C(=O)Nc1ccc2c(CC(N)=O)cc(=O)oc2c1) [(4)-NH-11]” was run?
Answer: some degree of cross-reactivity

Question: Which “selectivity for PAD2 over PAD4” value (PAD2) does the source give for “Ac-NV[hCha]R-{ACC} (SMILES CC(=O)N[C@@H](CC(N)=O)C(=O)N[C@H](C(=O)N[C@@H](CCC1CCCCC1)C(=O)N[C@@H](CCCNC(=N)N)C(=O)Nc1ccc2c(CC(N)=O)cc(=O)oc2c1)C(C)C) [(2)-NH-8]” here?
Answer: most selective

Question: And the “citrullination of substrate by PAD2” value (PAD2)?
Answer: higher reactivity

Question: And the “citrullination of substrate by PAD4” value (PAD4 [2])?
Answer: only minor processing

Question: “Ac-[Phe(3-I)][3Pal]DR-{ACC} (SMILES CC(=O)N[C@@H](Cc1cccc(I)c1)C(=O)N[C@@H](Cc1cccnc1)C(=O)N[C@@H](CC(=O)O)C(=O)N[C@@H](CCCNC(=N)N)C(=O)Nc1ccc2c(CC(N)=O)cc(=O)oc2c1) [(4)-NH-12]” was tested. Which “citrullination of substrate by PAD2” value (PAD2) did it give?
Answer: poorly recognized

Question: And the “selectivity for PAD4 over PAD2” value (PAD4 [2])?
Answer: most selective

Question: And the “citrullination of substrate by PAD4” value (PAD4 [2])?
Answer: efficiently processed

Question: Which “citrullination of substrate by PAD2” value (PAD2) does the source give for “Ac-[Phe(3-I)][hCha]DR-{ACC} (SMILES CC(=O)N[C@@H](Cc1cccc(I)c1)C(=O)N[C@@H](CCC1CCCCC1)C(=O)N[C@@H](CC(=O)O)C(=O)N[C@@H](CCCNC(=N)N)C(=O)Nc1ccc2c(CC(N)=O)cc(=O)oc2c1) [(4)-NH-13]” here?
Answer: some degree of cross-reactivity

Question: What does the source list for “Ac-[dY]A[hPhe]R-{ACC} (SMILES CC(=O)N[C@H](Cc1ccc(O)cc1)C(=O)N[C@@H](C)C(=O)N[C@@H](CCc1ccccc1)C(=O)N[C@@H](CCCNC(=N)N)C(=O)Nc1ccc2c(CC(N)=O)cc(=O)oc2c1) [(2)-NH-7]”?
Answer: selectivity for PAD2 over PAD4 (PAD2): most selective; citrullination of substrate by PAD2 (PAD2): higher reactivity; citrullination of substrate by PAD4 (PAD4 [2]): only minor processing

Question: “citrullinated vimentin: PAD4-mediated citrullinated vimentin” was tested. Which pro-IL-1β processing [1] did it give?
Answer: no cleavage

Question: How did the “citrullination of vimentin by PAD4” value (PAD4 [3]) turn out when “vimentin: Recombinant vimentin, purchased from Biotechne (NBP2-35139)” was run?
Answer: efficient citrullination

Question: And the pro-IL-1β processing [1]?
Answer: no cleavage
